Experiments:
[1] = Experimental: The nicotine solution used for nicotine treatment contains 0.05 milligram of nicotine (free base) per milliliter of solution ([…]). The active mesh nebulizer activates the active mesh for a single inhalation period of 3 seconds (0.05 minute) to deliver the dose of nicotine to the patient.
The nicotine solution used for nicotine treatment contains 0.5 milligram of nicotine (free base) per milliliter of solution (0.5 mg/ml). The active mesh nebulizer activates the active mesh for a single inhalation period of 3 seconds (0.05 minute) to deliver the dose of nicotine to the patient.
The nicotine solution used for nicotine treatment contains 0.01 milligram of nicotine (free base) per milliliter of solution (0.01 mg/ml). The active mesh nebulizer activates the active mesh for a single inhalation period of 3 seconds (0.05 minute) to deliver the dose of nicotine to the patient.
The hypothetical patient receives the nicotine dose at a regular interval (e.g., about every 2 hours) for a weight monitoring period (e.g., about 2 months in the present hypothetical example), after which the hypothetical patient is weighed to determine the effect of the nebulized nicotine solution on the hypothetical patient's weight.

Remark: listed apart in the source

**Q.** Which “management of nicotine cravings” value ([1]; Example 1: patient, 2-pack per day smoker, 0.0005 mg dose (0.2 ml/min, 0.05 mg/ml, 3 seconds) by inhalation approximately every two hours) does the source give for CN1CCCC1c1cccnc1 (stereo not shown) [nicotine] here?
**A.** sufficient to manage nicotine cravings

**Q.** What about the “patient's weight versus weight when smoking cigarettes” value ([1]; Example 1: patient, 2-pack per day smoker, 0.0005 mg dose by inhalation approximately every two hours) of the same compound?
**A.** holding the patient's weight at the same level as when the patient was smoking cigarettes

**Q.** And the “lethargy, or lassitude” value ([1]; Example 2: patient, 2-pack per day smoker, 0.005 mg dose (0.2 ml/min, 0.5 mg/ml, 3 seconds) by inhalation)?
**A.** sufficiently large to produce lethargy, or lassitude

**Q.** And the “effect on patient's weight” value ([1]; Example 3: hypothetical patient, 0.01 mg/ml solution, 0.2 ml/min, 3 seconds, about every 2 hours for about 2 months)?
**A.** has lost weight

**Q.** What about the “period with no desire for further nicotine inhalation” value (0.5 mg nicotine/ml (0.05%), single inhalation plume, 0.2 ml/minute for 10 seconds, according to theory and belief) of the same compound?
**A.** 2 to 3 h

**Q.** What about the “period of nicotine satiety (no desire for further nicotine inhalation)” value (1/40 mg nicotine/ml (0.025% nicotine), 0.2 ml/min, nebulization time 10 seconds, according to theory and belief) of the same compound?
**A.** at least two hours

**Q.** And the “time to brain response” value (in vivo)?
**A.** less than 10 seconds
